Results published in patent US8802353B2, “Compound for resist and radiation-sensitive composition specification” (Mitsubishi Gas Chemical Company, Inc., priority 2004, dated 2014).

Experiments:
Format in all cases: physicochemical
[1] = Glass transition temperature, crystallization temperature and quantity of crystallization heat (DSC); details: for Glass transition temperature: 20° C./min, nitrogen gas flow; for Glass transition temperature-Crystallization temperature: rating of the difference
Method: A sample (about 10 mg) placed in a non-sealed aluminum container was heated to a temperature higher than the melting point at a temperature rising rate of 20° C./min in a nitrogen gas flow (50 ml/min). After being rapidly cooled, the sample was again heated to a temperature higher than the melting point at a temperature rising rate of 20° C./min in a nitrogen gas flow (30 ml/min). After being rapidly cooled, the sample was again heated to 400° C. at a temperature rising rate of 20° C./min in a nitrogen gas flow (30 ml/min), to conduct a differential scanning calorimetric analysis using DSC/TA-50WS manufactured by Shimadzu Corporation. The middle point of the region at which the base line turned discontinuous (the point at which the specific heat reduced to half) was taken as the glass transition temperature (Tg) and the temperature of the exothermic peak after the discontinuous region was taken as the crystallization temperature. The quantity of crystallization heat was determined by the area of the region which was surrounded by the exothermic peak and the base line. The sample was rated A when meeting Tg≧130° C., and rated C when meeting Tg≦130° C. Also, the sample was rated A when meeting (glass transition temperature)−(crystallization temperature)≧70° C., and rated C when meeting (glass transition temperature)-(crystallization temperature)<70° C.

[2] = Ultraviolet-visible absorption spectra, absorptivity coefficient at 248 nm; details: 0.01 g/L methanol solution
Method: From the ultraviolet-visible absorption spectra of a 0.01 g/L methanol solution of each of Compounds 103, 105 and 108 measured by an autographic spectrophotometer “UV-3100PC” manufactured by Shimadzu Corporation, the absorptivity coefficient at 248 nm of each compound was determined. The absorptivity coefficient was 43.4 L/(cm·g) for Compound 103, 47.4 L/(cm·g) for Compound 105, and 16.9 L/(cm·g) for Compound 108. The absorptivity coefficient is sufficiently larger than 15 L/(cm·g) in any of the compounds, to indicate that the compounds, particularly Compounds 103 and 105, are useful as the raw material of the compound B for forming shade masks. The compounds B produced from these compounds and the radiation-sensitive composition containing such compounds B also have a high absorptivity and are useful for forming shade masks.

[3] = Film-forming property (spin-coated film on silicon wafer); design: key: rated C when the film was clouded or its surface was roughened; rated B when the film was partly clouded or roughened; rated A when the film had a good surface flatness without causing clouding; details: 3% by weight solution spin-coated, 110° C. 3 min
Source text: A 3% by weight solution of the compound B or a mixture (compound B and polyphenol A) in PGME/PE (1/2 by weight) or acetone when not dissolved in PGME/PE was spin-coated on a silicon wafer which had been surface-treated with a silane coupling agent, to form a resist film with a thickness of about 0.05 μm.

[4] = Adhesion to silicon substrate; design: key: rated A when the film was not peeled from the silicon wafer; rated C when peeled off; details: silicon wafer surface-treated with silane coupling agent
Method: The resist film formed in (2-2) was tested for its adhesion to the silicon wafer which was surface-treated with a silane coupling agent. The sample was rated A when the film was not peeled from the silicon wafer, and rated C when peeled off.

[5] = Solubility in safety solvent; details: 23° C.; PGMEA, PGME, ethyl lactate, butyl acetate, methyl 3-methoxypropionate, ethyl propionate
Method: The solubility of the compound B was tested at 23° C. using propylene glycol monomethyl ether acetate, propylene glycol monomethyl ether, ethyl lactate, butyl acetate, methyl 3-methoxypropionate and ethyl propionate. The sample was rated A when dissolved in any one of the above solvents in a concentration of 5 wt % or more, rated B when dissolved in a concentration of 0.1 to 5 wt %, and rated C when dissolved only in a concentration of less than 0.1 wt %.

| SMILES | Glass transition temperature Rating ([1]; DSC) | Glass transition temperature ([1]; DSC) [°C] | Glass transition temperature-Crystallization temperature [1] | absorptivity coefficient at 248 nm [2] [L/cm/g] | Crystallization temperature ([1]; DSC, exothermic peak) [°C] | film-forming property [3] | Adhesion to silicon substrate [4] | Solubility to safety solvent [5] |
| --- | --- | --- | --- | --- | --- | --- | --- | --- |
| Cc1cc(C(c2ccc3ccc(C(c4cc(C)c(O)c(C)c4C)c4cc(C)c(O)c(C)c4C)cc3c2)c2cc(C)c(O)c(C)c2C)c(C)c(C)c1O [Compound 105] | A (rated A when meeting Tg≧130° C.) | 156 | A (rated A when meeting (glass transition temperature)−(crystallization temperature)≧70° C.) | 47.4 |  |  |  |  |
| Cc1cc(O)c(C(C)C)cc1C(c1ccc2cc(C(c3cc(C(C)C)c(O)cc3C)c3cc(C(C)C)c(O)cc3C)ccc2c1)c1cc(C(C)C)c(O)cc1C [Compound 103] | C (rated C when meeting Tg≦130° C.) | 116 | A (rated A when meeting (glass transition temperature)−(crystallization temperature)≧70° C.) | 43.4 | 190 |  |  |  |
| Cc1cc(C(c2cc(C(c3cc(C)c(O)c(C)c3C)c3cc(C)c(O)c(C)c3C)cc(C(c3cc(C)c(O)c(C)c3C)c3cc(C)c(O)c(C)c3C)c2)c2cc(C)c(O)c(C)c2C)c(C)c(C)c1O [Compound 108] | A (rated A when meeting Tg≧130° C.) | 125 | A (rated A when meeting (glass transition temperature)−(crystallization temperature)≧70° C.) | 16.9 |  |  |  |  |
| CCOC(C)Oc1cc(C)c(C(c2ccc3cc(C(c4cc(C)c(O)cc4C)c4cc(C)c(O)cc4C)ccc3c2)c2cc(C)c(O)cc2C)cc1C (stereo not shown) [Compound 109] |  |  |  |  |  | A | A | A (rated A when dissolved in any one of the above solvents in a concentration of 5 wt % or more) |
| Cc1cc(C(c2cc(C(c3cc(C)c(O)c(C)c3C)c3cc(C)c(O)c(C)c3C)cc(C(c3cc(C)c(O)c(C)c3C)c3cc(C)c(OC(C)OC4CCCCC4)c(C)c3C)c2)c2cc(C)c(O)c(C)c2C)c(C)c(C)c1O (stereo not shown) [Compound 119] |  |  |  |  |  | A | A | A (rated A when dissolved in any one of the above solvents in a concentration of 5 wt % or more) |
| Cc1cc(C(c2ccc3cc(C(c4cc(C)c(O)cc4C)c4cc(C)c(OC(C)OC5CCCCC5)cc4C)ccc3c2)c2cc(C)c(O)cc2C)c(C)cc1O (stereo not shown) [Compound 110] |  |  |  |  |  | A | A | A (rated A when dissolved in any one of the above solvents in a concentration of 5 wt % or more) |
| Cc1cc(C(c2ccc(-c3cccc(-c4ccc(C(c5cc(C)c(O)cc5C)c5cc(C)c(OC(C)OC6CCCCC6)cc5C)cc4)c3)cc2)c2cc(C)c(O)cc2C)c(C)cc1O (stereo not shown) [Compound 115] |  |  |  |  |  | A | A | A (rated A when dissolved in any one of the above solvents in a concentration of 5 wt % or more) |
